Test results published in US20220120732A1, “TREATMENT OF DISEASES WITH MULTIMERIC PEPTIDES” (Ramot at Tel-Aviv University Ltd., priority 2019, published 2022).
Bridges are numbered along the chain shown (N, C = ends). Roman numbers before positions name the chains, in order. Where no end group is shown, it is not given here.

Test system: normal stroma cells
Assay: Cell density, patient-derived stromal cells with autologous PBMC and C24D
Format: cell-based, human
Settings: autologous PBMCs + C24D; FIGS. 5A-B
Text: Patient-derived tumor primary culture medium: Medium D: DMEM/F12 (1:1, v/v) supplemented with 10% FBS and 1% antibiotics/antimycotic (100×. Medium M: Medium 171 supplemented with 1% MEGS (100×), and 1% antibiotics/antimycotics. Medium DB: mixed from medium D and medium M (1:1, v/v).
Tumor biopsies, all from different patients, were collected after obtaining the patients' consent and were transported to the laboratory. Excess adipose tissue was pared off the tumor samples, following which the samples were sliced into small fragments (approximately 1-2 mm^2) by using a scalpel. The fragments were seeded per 10 cm^2 Petri dishes in DB medium. The Petri dishes were incubated at 37° C. with 5% CO2 and monitored daily to record the time of cell appearance and the cell morphology. The medium was replaced every 3 days. Approximately two weeks after primary culture incubation, cells were trypsinized and cultured in Petri dishes according to the below protocol.
Day 1: 4×10^5 tumor cells from the cell line or tumor and stroma cells derived from patient's biopsies were incubated in the respective growth medium in 6 well plates overnight or Petri dishes. Day 2: 3 hours prior to addition of PBMC of healthy female donors or from autologous patients, DMEM medium was changed to RPMI medium. […]

effect on normal stroma cells of the same patient: no effect
Substance: I: CGHHLLRPRRRKRPHSIPTPILIFRSP / II: CGHHLLRPRRRKRPHSIPTPILIFRSP (disulfide I:1-II:1) [C24D]
